Common to all, as to assay: DTP human tumour cell line panel, 48 h
For test [1], the system named is HOP-92 NSCLC.
In test [2] the test system is LOX IMVI melanoma.
Test [3] deals with NCI-H23 lung.
The test system of test [4] is NCI-H460 lung.
The subject of test [5] is SF-539 CNS.
The subject of test [6] is SW-620 colon.
The test system of test [7] is UACC-257 melanoma.
Test [8] relates to MALME-3M melanoma.
In test [9] the test system is NCI-H226 lung.
Test [10] has as its system RXF 393 renal.

Several values for one entry are separate records, joined by “and”; a condition that tells them apart may be missing. Identical values can stand only once.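 Assay format: 96-well plates, 48-hour exposure. The concentration for 50% growth inhibition is given as GI50. The concentration for full growth arrest is given as TGI.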

From PubChem BioAssay (NCI) come the findings set out here.

For orientation: GI50 means the concentration at which growth is held to half of that of the control. In general, TGI refers to the concentration giving total growth inhibition. Consider `Fc1ccc2c(c1)C1=C(CO2)C(c2ccc(Cl)cc2)NC(=S)N1` (configuration not stated), for which the GI50 in test [1] was 61 µM; in [2], 23 µM; in test [3], 26 µM; in test [4], 21.9 µM; in test [5], 23 µM; in [6], 27.3 µM. For the same compound, the GI50 in test [7] is 29.4 µM. The TGI in [1] was greater than 100 µM; in test [2] it was 61.7 µM; in test [3] it was 58.5 µM; in test [4], 61.8 µM; in [5], 44.1 µM; in test [6] it was 93.8 µM. For the same compound, in test [7], the concentration for total growth inhibition (TGI) stood at 95.3 µM.
Regarding `CC1CCCc2c1c1ccc3c(O)cccc3c1oc2=O` (configuration not stated), the total growth inhibition concentration (TGI) in test [2] is greater than 100 µM; in test [8], greater than 100 µM; in test [9], greater than 100 µM; in test [3] it was greater than 100 µM; in test [4], greater than 100 µM; in test [10] it was 73.2 µM. Besides, the TGI in test [6] and in [7] was greater than 100 µM in each case.
Consider `CCOC(=O)C(C)(C)Oc1ccc2c(-c3ccc(Cl)cc3)c(-c3ccc(Cl)cc3)c(=O)oc2c1`, for which the concentration for total growth inhibition (TGI) in test [2], in [8], in test [9], in test [3], in test [4] and in [10] was greater than 100 µM throughout. Also, the TGI in test [5], in test [6] and in test [7] was greater than 100 µM in each case.
As to `CC1[C@@H]2CC=C3[C@H]4CCC5Cc6nc7c(nc6C[C@@]5(C)C4(O)CC(=O)[C@]32CO[C@]12OC(C)(C)CC2O)CC1CC[C@@H]2C3=C[C@H]4O[C@@]5(O[C@@](C)(CO)C[C@@H]5O)C(C)[C@@]4(O)[C@]3(C)[C@@H](O)CC2[C@]1(C)C7` (some centres not stated), the GI50 in [1] was 0.000104 µM and 0.00036 µM; in test [2], 0.00015 µM and 0.00114 µM; in [8], 0.00298 µM and 0.00369 µM; in test [3] it was 0.00071 µM and 0.00224 µM; in test [4], 0.000125 µM and 0.00036 µM; in test [10] it was 0.00036 µM. Further, the GI50 is 0.00036 µM in [5]; 0.000172 µM and 0.00119 µM in test [6]. Moreover, the TGI in test [8] was 0.142 µM and 0.0292 µM; in test [3], 0.143 µM and 0.377 µM; in [4], 0.0155 µM and 0.14 µM; in test [10] it was 0.000371 µM and 0.00217 µM.
As to `Clc1ccc(CNc2nccc(-c3cnn4ncccc34)n2)cc1`, the GI50 is 6.12 µM in test [2]; 8.94 µM in test [8]; 7.79 µM in test [9]; 6.74 µM in test [3]; 7.92 µM in test [4]; 4.88 µM in [10]. Moreover, the values for the GI50 in test [5], in test [6] and in test [7] were 6.25 µM, 8.42 µM and 6.43 µM, respectively. In addition, the concentration for total growth inhibition (TGI) in [2] was greater than 25 µM; in test [8], 23.3 µM; in test [9] it was greater than 25 µM; in [3] it was 22.8 µM; in [4], greater than 25 µM; in test [10] it was 10.2 µM. Also, the total growth inhibition concentration (TGI) was 15.6 µM in [5], greater than 25 µM in [6] and 16.5 µM in test [7].
For `COc1ccc2c(CCNC(=O)/C=C/c3ccccc3)c(C(C)=O)[nH]c2c1[N+](=O)[O-]`, the TGI is 27.3 µM in test [2]; 46.7 µM in test [9]; 58 µM in [3]; greater than 100 µM in test [4]; 61 µM in [5]; greater than 100 µM in [6]. The compound further yielded a concentration for total growth inhibition (TGI) in test [7] greater than 100 µM.
On to `CC(=O)OC1CCC2C(=CCC3C2(C)C(=O)CC2(C)C(C4(C)OC(C(C)C)=CC4=O)C(O)CC32C)C1(C)C` (configuration not stated), for which the total growth inhibition concentration (TGI) in test [1] was greater than 100 µM; in [8], 47.4 µM; in test [9] it was greater than 100 µM; in test [3], greater than 100 µM; in [4] it was 66.4 µM; in [5] it was 33.2 µM. The compound also yielded a concentration for total growth inhibition (TGI) in test [6] greater than 100 µM.
On to `CCN(CC)c1ccc(N=C2C=C(Cl)C(=O)c3ncccc32)c(C)c1`, for which the concentration for total growth inhibition (TGI) in [1] was determined as 7.2 µM; in test [2] it was 26.9 µM; in [8], 10.5 µM; in test [3], 11.3 µM; in [4], 39 µM; in test [10] it was 17.5 µM. Moreover, the TGI in test [5] turned out to be 28 µM; in test [6], 17.3 µM; in test [7], 7.29 µM.
With `O=C(Nc1ccc(Br)cc1)C(=O)C(C(=O)c1ccccc1F)C1OC(=O)c2ccccc21` (configuration not stated), the concentration for total growth inhibition (TGI) in test [1] was 65.2 µM; in [2], 44.9 µM; in test [8], 88.6 µM; in test [9], 19.7 µM; in test [3], 43.6 µM; in test [4], greater than 100 µM. The values for the TGI in test [5], in test [6] and in test [7] were 66.9 µM, greater than 100 µM and greater than 100 µM, respectively.
For `CCOC(=O)c1ccc(N2C(=O)Cc3ccccc3C2=O)cc1`, the TGI in test [8], in test [9], in test [3], in test [10], in test [5] and in test [6] was greater than 100 µM throughout. In test [7], this compound came in with a total growth inhibition concentration (TGI) greater than 100 µM.
Consider `CCCCCCCCCCCCCCCCCCOc1ccccc1CC(=O)NCC[N+](C)(C)C`, for which the GI50 was 1.92 µM in [1]; 14.8 µM in [8]; 4.4 µM in test [9]; 5.07 µM in [3]; 3.47 µM in [4]; 5.48 µM in test [5]. The GI50 is 5.8 µM in [6] and 23.6 µM in [7]. The TGI in test [1] came out at 7.16 µM; in test [8], 94 µM; in test [9], 42.9 µM; in test [3], 35.4 µM; in [4] it was 52.4 µM; in test [5] it was 37 µM. Moreover, the TGI was found to be 40.8 µM in test [6] and 51.6 µM in [7].
As to `Nc1c(C(=O)N/N=C/c2ccc(-c3cc(Cl)c(Cl)cc3Cl)o2)cnn1-c1ccnc2c(C(F)(F)F)cccc12`, the GI50 in test [1] was 2.57 µM; in [2] it was 4.37 µM; in [8], 2.66 µM; in test [9], 5.62 µM; in test [3], 3.32 µM; in test [4], 3.73 µM. Further, the GI50 in test [5] is 5.48 µM; in [6], 4.05 µM. The TGI was 7 µM in [1]; greater than 100 µM in test [2]; 10.6 µM in test [8]; greater than 100 µM in [9]; 47.2 µM in test [3]; 16.9 µM in test [4]. Besides, the TGI in test [5] is 38.7 µM; in test [6], greater than 100 µM.
